Values of other authors, collected in patent publication US20040202615A1, “Melt-processed powder containing particles' repulsion agent, evaporation retardant, and means for benefit to plant cultivation and/or animal husbandry” (priority 2003, published 2004).

System: natural living organisms in water
Details: active ingredient level 0.04-1.0% in plastic pool and pit liners

## CCCCCCCCn1sccc1=O [2-o-octyl-4-isothiazolin-3-one]
  slowing of degradation of plastic liners by natural living organisms: significantly slows down their degradation
